Active and inactive are the calls of the source. No cut-off for these calls is given here.
Test system: Osteoblast
Test: Osteoblast activity in neonatal rat calvarie-derived primary osteoblasts assessed as [3H]thymidine incorporation at 10^-10 to 10^-8 M by beta counting
Format: functional, cell-based

| Structure (SMILES) | Activity |
| --- | --- |
| C[C@H](NC(=O)[C@@H]1CC=CC[C@H](NC(=O)[C@@H](N)CCCCN)C(=O)N[C@@H](CC(N)=O)C(=O)N2CCC[C@H]2C(=O)N[C@@H](C)C(=O)N[C@@H]([C@@H](C)O)C(=O)N1)C(N)=O (mixture of isomers; 2b) | inactive |
| C[C@H](NC(=O)[C@@H]1CCCCNC(=O)OCC=CCOC(=O)NCCCC[C@H](NC(=O)[C@@H](N)CCCCN)C(=O)N[C@@H](CC(N)=O)C(=O)N[C@@H]([C@@H](C)O)C(=O)N[C@@H](C)C(=O)N[C@@H]([C@@H](C)O)C(=O)N1)C(N)=O (mixture of isomers; 5a) | Active |
| C[C@H](NC(=O)[C@@H]1CCCCNC(=O)OCC=CCOC(=O)NCCCC[C@H](NC(=O)[C@@H](N)CCCCN)C(=O)N[C@@H](CC(N)=O)C(=O)N[C@@H]([C@@H](C)O)C(=O)N[C@@H](C)C(=O)N[C@@H]([C@@H](C)O)C(=O)N1)C(N)=O (mixture of isomers; 5b) | Active |
| C[C@H](NC(=O)[C@@H]1CC=CC[C@H](NC(=O)[C@@H](N)CCCCN)C(=O)N[C@@H](CC(N)=O)C(=O)N[C@@H]([C@@H](C)O)C(=O)N[C@@H](C)C(=O)N[C@@H]([C@@H](C)O)C(=O)N1)C(N)=O (mixture of isomers) | Active |
| C[C@H](NC(=O)[C@@H]1CC=CC[C@H](NC(=O)[C@@H](N)CCCCN)C(=O)N[C@@H](CC(N)=O)C(=O)N2CCC[C@H]2C(=O)N[C@@H](C)C(=O)N[C@@H]([C@@H](C)O)C(=O)N1)C(N)=O (mixture of isomers; 2a) | inactive |
